Data taken from US20260125382A1, “COMPOUNDS FOR INHIBITING OR DEGRADING CDK2 AND/OR CDK9 AND MEDICINAL USE THEREOF” (KOREA RESEARCH INSTITUTE OF CHEMICAL TECHNOLOGY, priority 2022, published 2026).

How the values were obtained:
CDK9 = biological target: T1, CDK9 (Homo sapiens, UniProt P50750); experiment: CDK protein degradation activity (Western blotting), CDK9; format: cell-based; details: MDA-MB-231 cells, 16 hours, Western blot
T1 construct: endogenous in cells; host or cells: MDA-MB-231
Summary of the method: (§1)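 Protein levels were read by Western blot densitometry, tubulin serving as loading reference. Beforehand, MDA-MB-231 cells had been exposed for 16 hours to 100 nM, 1 μM or 10 μM compound, DMSO as control.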

CDK2 = biological target: T2, CDK2 (Homo sapiens, UniProt P24941); experiment: CDK protein degradation activity (Western blotting), CDK2; format: cell-based; details: MDA-MB-231 cells, 16 hours, Western blot
T2 construct: endogenous in cells; host or cells: MDA-MB-231
Summary of the method: as §1

T1 sequence (P50750 whole entry): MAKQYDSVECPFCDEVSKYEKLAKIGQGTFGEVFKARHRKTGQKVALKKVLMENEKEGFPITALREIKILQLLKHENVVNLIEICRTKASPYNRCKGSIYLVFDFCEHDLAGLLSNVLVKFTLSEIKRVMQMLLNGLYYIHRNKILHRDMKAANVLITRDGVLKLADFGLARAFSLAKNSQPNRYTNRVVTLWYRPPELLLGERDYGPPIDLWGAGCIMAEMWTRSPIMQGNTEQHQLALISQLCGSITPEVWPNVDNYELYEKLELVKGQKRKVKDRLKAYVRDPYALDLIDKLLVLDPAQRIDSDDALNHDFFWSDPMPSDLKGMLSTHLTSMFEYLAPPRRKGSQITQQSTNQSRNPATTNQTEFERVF

O=C1CC[C@H](N2C(=O)c3cccc(N4CCC(CN5CCC(c6ccc(Nc7ncnc8c7ncn8C7CC(NC(=O)Cc8ccccc8)C7)cc6)CC5)CC4)c3C2=O)C(=O)N1 (stereo partly drawn) [Compound 291, N-((1s,3s)-3-(6-((4-(1-((1-(2-(2,6-dioxopiperidin-3-yl)-1,3-dioxoisoindolin-4-yl)piperidin-4-yl)methyl)piperidin-4-yl)phenyl)amino)-9H-purin-9-yl)cyclobutyl)-2-phenylacetamide]
Enzyme degradation CDK9 (% remaining) @ 0.1 μM (CDK9): 20% | Enzyme degradation CDK9 (% remaining) @ 1 μM (CDK9): 0% | Enzyme degradation CDK9 (% remaining) @ 10 μM (CDK9): 0% | Enzyme degradation CDK2 (% remaining) @ 0.1 μM (CDK2): 20/20/20% | Enzyme degradation CDK2 (% remaining) @ 1 μM (CDK2): 20/20/20% | Enzyme degradation CDK2 (% remaining) @ 10 μM (CDK2): 20/20/20%

N#Cc1cccc(C(=O)N[C@H]2C[C@@H](n3cnc4c(Nc5ccc(N6CCN(CC7CCN(c8ccc9c(c8)CN(C8CCC(=O)NC8=O)C9=O)CC7)CC6)cc5)ncnc43)C2)n1 (stereo partly drawn) [Compound 441, 6-cyano-N-((1s,3s)-3-(6-((4-(4-((1-(2-(2,6-dioxopiperidin-3-yl)-1-oxoisoindolin-5-yl)piperidin-4-yl)methyl)piperazin-1-yl)phenyl)amino)-9H-purin-9-yl)cyclobutyl)picolinamide]
Enzyme degradation CDK9 (% remaining) @ 0.1 μM (CDK9): 10/10/10% | Enzyme degradation CDK9 (% remaining) @ 1 μM (CDK9): 10/10/10% | Enzyme degradation CDK9 (% remaining) @ 10 μM (CDK9): 10/10/10% | Enzyme degradation CDK2 (% remaining) @ 0.1 μM (CDK2): 30% | Enzyme degradation CDK2 (% remaining) @ 1 μM (CDK2): 30% | Enzyme degradation CDK2 (% remaining) @ 10 μM (CDK2): 40%

Cc1cccc(C(=O)NC2CC(n3cnc4c(NC5CCN(C(=O)CC6CCN(C(=O)CNc7cccc8c7C(=O)N([C@H]7CCC(=O)NC7=O)C8=O)CC6)CC5)ncnc43)C2)n1 (stereo partly drawn) [Compound 52, N-((1s,3s)-3-(6-((1-(2-(1-((2-(2,6-dioxopiperidin-3-yl)-1,3-dioxoisoindolin-4-yl)glycyl)piperidin-4-yl)acetyl)piperidin-4-yl)amino)-9H-purin-9-yl)cyclobutyl)-6-methylpicolinamide]
Enzyme degradation CDK9 (% remaining) @ 0.1 μM (CDK9): 70% | Enzyme degradation CDK9 (% remaining) @ 1 μM (CDK9): 30% | Enzyme degradation CDK9 (% remaining) @ 10 μM (CDK9): 10% | Enzyme degradation CDK2 (% remaining) @ 0.1 μM (CDK2): 40% | Enzyme degradation CDK2 (% remaining) @ 1 μM (CDK2): 40% | Enzyme degradation CDK2 (% remaining) @ 10 μM (CDK2): 50%

Cc1cccc(C(=O)N[C@H]2C[C@@H](n3cnc4c(NCc5ccc(OCC6CCN(C(=O)COc7ccc8c(c7)C(=O)N([C@H]7CCC(=O)NC7=O)C8=O)CC6)cc5)ncnc43)C2)n1 [Compound 106, N-((1s,3s)-3-(6-((4-((1-(2-((2-(2,6-dioxopiperidin-3-yl)-1,3-dioxoisoindolin-5-yl)oxy)acetyl)piperidin-4-yl)methoxy)benzyl)amino)-9H-purin-9-yl)cyclobutyl)-6-methylpicolinamide]
Enzyme degradation CDK9 (% remaining) @ 0.1 μM (CDK9): 70% | Enzyme degradation CDK9 (% remaining) @ 1 μM (CDK9): 0% | Enzyme degradation CDK9 (% remaining) @ 10 μM (CDK9): 0% | Enzyme degradation CDK2 (% remaining) @ 0.1 μM (CDK2): 70% | Enzyme degradation CDK2 (% remaining) @ 1 μM (CDK2): 50% | Enzyme degradation CDK2 (% remaining) @ 10 μM (CDK2): 50%

O=C1CC[C@@H](c2cccc(OCC(=O)N3CCC(CC(=O)N4CCN(c5ccc(Nc6ncnc7c6ncn7[C@H]6C[C@@H](NC(=O)Cc7ccccc7)C6)cc5)CC4)CC3)c2)C(=O)N1 [Compound 227, N-((1s,3s)-3-(6-((4-(4-(2-(1-(2-(3-(2,6-dioxopiperidin-3-yl)phenoxy)acetyl)piperidin-4-yl)acetyl)piperazin-1-yl)phenyl)amino)-9H-purin-9-yl)cyclobutyl)-2-phenylacetamide]
Enzyme degradation CDK9 (% remaining) @ 0.1 μM (CDK9): 60% | Enzyme degradation CDK9 (% remaining) @ 1 μM (CDK9): 70% | Enzyme degradation CDK9 (% remaining) @ 10 μM (CDK9): 10% | Enzyme degradation CDK2 (% remaining) @ 0.1 μM (CDK2): 50% | Enzyme degradation CDK2 (% remaining) @ 1 μM (CDK2): 20% | Enzyme degradation CDK2 (% remaining) @ 10 μM (CDK2): 70%

O=C1CC[C@H](n2nnc3ccc(N4CCN(C5CC6(CCN(c7ccc(Nc8ncnc9c8ncn9C8CC(NC(=O)Cc9ccccc9)C8)cc7)CC6)C5)CC4)cc3c2=O)C(=O)N1 (stereo partly drawn) [Compound 337, N-((1s,3s)-3-(6-((4-(2-(4-(3-(2,6-dioxopiperidin-3-yl)-4-oxo-3,4-dihydrobenzo[d][1,2,3]triazin-6-yl)piperazin-1-yl)-7-azaspiro[3.5]nonan-7-yl)phenyl)amino)-9H-purin-9-yl)cyclobutyl)-2-phenylacetamide]
Enzyme degradation CDK9 (% remaining) @ 0.1 μM (CDK9): 50% | Enzyme degradation CDK9 (% remaining) @ 1 μM (CDK9): 10% | Enzyme degradation CDK9 (% remaining) @ 10 μM (CDK9): 10% | Enzyme degradation CDK2 (% remaining) @ 0.1 μM (CDK2): 0/0/0% | Enzyme degradation CDK2 (% remaining) @ 1 μM (CDK2): 0/0/0% | Enzyme degradation CDK2 (% remaining) @ 10 μM (CDK2): 0/0/0%

O=C1CC[C@@H](c2cccc(OCC(=O)N3CCC(CCCN4CCN(c5ccc(Nc6ncnc7c6ncn7C6CC(NC(=O)Cc7ccccc7)C6)cc5)CC4)CC3)c2)C(=O)N1 (stereo partly drawn) [Compound 259, N-((1s,3s)-3-(6-((4-(4-(3-(1-(2-(3-(2,6-dioxopiperidin-3-yl)phenoxy)acetyl)piperidin-4-yl)propyl)piperazin-1-yl)phenyl)amino)-9H-purin-9-yl)cyclobutyl)-2-phenylacetamide]
Enzyme degradation CDK9 (% remaining) @ 0.1 μM (CDK9): 0/0/0% | Enzyme degradation CDK9 (% remaining) @ 1 μM (CDK9): 0/0/0% | Enzyme degradation CDK9 (% remaining) @ 10 μM (CDK9): 0/0/0% | Enzyme degradation CDK2 (% remaining) @ 0.1 μM (CDK2): 0/0/0% | Enzyme degradation CDK2 (% remaining) @ 1 μM (CDK2): 0/0/0% | Enzyme degradation CDK2 (% remaining) @ 10 μM (CDK2): 0/0/0%

O=C1CC[C@H](N2C(=O)c3cc(F)c(N4CCC5(CC4)CC(N4CCN(c6ccc(Nc7ncnc8c7ncn8[C@H]7C[C@@H](NC(=O)Cc8ccccc8)C7)cc6)CC4)C5)cc3C2=O)C(=O)N1 [Compound 244, N-((1s,3s)-3-(6-((4-(4-(7-(2-(2,6-dioxopiperidin-3-yl)-6-fluoro-1,3-dioxoisoindolin-5-yl)-7-azaspiro[3.5]nonan-2-yl)piperazin-1-yl)phenyl)amino)-9H-purin-9-yl)cyclobutyl)-2-phenylacetamide]
Enzyme degradation CDK9 (% remaining) @ 0.1 μM (CDK9): 60% | Enzyme degradation CDK9 (% remaining) @ 1 μM (CDK9): 0% | Enzyme degradation CDK9 (% remaining) @ 10 μM (CDK9): 0% | Enzyme degradation CDK2 (% remaining) @ 0.1 μM (CDK2): 70% | Enzyme degradation CDK2 (% remaining) @ 1 μM (CDK2): 50% | Enzyme degradation CDK2 (% remaining) @ 10 μM (CDK2): 40%

O=C1CCN(c2coc3cc(C(=O)NC[C@H]4CC[C@H](CN5CCN(c6ccc(Nc7ncnc8c7ncn8[C@H]7C[C@@H](NC(=O)Cc8ccccc8)C7)cc6)CC5)CC4)ccc23)C(=O)N1 [Compound 199, 3-(2,4-dioxotetrahydropyrimidin-1(2H)-yl)-N-(((1r,4r)-4-((4-(4-((9-((1s,3s)-3-(2-phenylacetamido)cyclobutyl)-9H-purin-6-yl)amino)phenyl)piperazin-1-yl)methyl)cyclohexyl)methyl)benzofuran-6-carboxamide]
Enzyme degradation CDK9 (% remaining) @ 0.1 μM (CDK9): 20% | Enzyme degradation CDK9 (% remaining) @ 1 μM (CDK9): 30% | Enzyme degradation CDK9 (% remaining) @ 10 μM (CDK9): 30% | Enzyme degradation CDK2 (% remaining) @ 0.1 μM (CDK2): 50% | Enzyme degradation CDK2 (% remaining) @ 1 μM (CDK2): 60% | Enzyme degradation CDK2 (% remaining) @ 10 μM (CDK2): 50%

Cc1cccc(C(=O)N[C@H]2C[C@@H](n3cnc4c(Nc5ccc(N6CCN(C7CC8(CCN(c9cc%10c(cc9F)C(=O)N([C@H]9CCC(=O)NC9=O)C%10=O)CC8)C7)CC6)cc5)ncnc43)C2)n1 [Compound 385, N-((1s,3s)-3-(6-((4-(4-(7-(2-(2,6-dioxopiperidin-3-yl)-6-fluoro-1,3-dioxoisoindolin-5-yl)-7-azaspiro[3.5]nonan-2-yl)piperazin-1-yl)phenyl)amino)-9H-purin-9-yl)cyclobutyl)-6-methylpicolinamide]
Enzyme degradation CDK9 (% remaining) @ 0.1 μM (CDK9): 0/0/0% | Enzyme degradation CDK9 (% remaining) @ 1 μM (CDK9): 0/0/0% | Enzyme degradation CDK9 (% remaining) @ 10 μM (CDK9): 0/0/0% | Enzyme degradation CDK2 (% remaining) @ 0.1 μM (CDK2): 40% | Enzyme degradation CDK2 (% remaining) @ 1 μM (CDK2): 30% | Enzyme degradation CDK2 (% remaining) @ 10 μM (CDK2): 30%

O=C1CC[C@H](N2C(=O)c3cccc(CCCN4CCC(CN5CCN(c6ccc(Nc7ncnc8c7ncn8C7CC(NC(=O)c8cccc(C(F)(F)F)n8)C7)cc6)CC5)CC4)c3C2=O)C(=O)N1 (stereo partly drawn) [Compound 426, N-((1s,3s)-3-(6-((4-(4-((1-(3-(2-(2,6-dioxopiperidin-3-yl)-1,3-dioxoisoindolin-4-yl)propyl)piperidin-4-yl)methyl)piperazin-1-yl)phenyl)amino)-9H-purin-9-yl)cyclobutyl)-6-(trifluoromethyl)picolinamide]
Enzyme degradation CDK9 (% remaining) @ 0.1 μM (CDK9): 0% | Enzyme degradation CDK9 (% remaining) @ 1 μM (CDK9): 0% | Enzyme degradation CDK9 (% remaining) @ 10 μM (CDK9): 20% | Enzyme degradation CDK2 (% remaining) @ 0.1 μM (CDK2): 10% | Enzyme degradation CDK2 (% remaining) @ 1 μM (CDK2): 10% | Enzyme degradation CDK2 (% remaining) @ 10 μM (CDK2): 30%

O=C1CC[C@H](N2C(=O)c3cccc(NCC(=O)N4CCN(CCCN5CCN(c6ccc(Nc7ncnc8c7ncn8[C@H]7C[C@@H](NC(=O)Cc8ccccc8)C7)cc6)CC5)CC4)c3C2=O)C(=O)N1 [Compound 231, N-((1s,3s)-3-(6-((4-(4-(3-(4-((2-(2,6-dioxopiperidin-3-yl)-1,3-dioxoisoindolin-4-yl)glycyl)piperazin-1-yl)propyl)piperazin-1-yl)phenyl)amino)-9H-purin-9-yl)cyclobutyl)-2-phenylacetamide]
Enzyme degradation CDK9 (% remaining) @ 0.1 μM (CDK9): 20% | Enzyme degradation CDK9 (% remaining) @ 1 μM (CDK9): 0% | Enzyme degradation CDK9 (% remaining) @ 10 μM (CDK9): 0% | Enzyme degradation CDK2 (% remaining) @ 0.1 μM (CDK2): 50% | Enzyme degradation CDK2 (% remaining) @ 1 μM (CDK2): 60% | Enzyme degradation CDK2 (% remaining) @ 10 μM (CDK2): 40%

O=C1CC[C@H](N2C(=O)c3ccc(N4CCN(CC5CCN(c6ccc(Nc7ncnc8c7ncn8C7CC(NC(=O)Cc8ccccc8)C7)cc6)CC5)CC4)cc3C2=O)C(=O)N1 (stereo partly drawn) [Compound 319, N-((1s,3s)-3-(6-((4-(4-((4-(2-(2,6-dioxopiperidin-3-yl)-1,3-dioxoisoindolin-5-yl)piperazin-1-yl)methyl)piperidin-1-yl)phenyl)amino)-9H-purin-9-yl)cyclobutyl)-2-phenylacetamide]
Enzyme degradation CDK9 (% remaining) @ 0.1 μM (CDK9): 70% | Enzyme degradation CDK9 (% remaining) @ 1 μM (CDK9): 0% | Enzyme degradation CDK9 (% remaining) @ 10 μM (CDK9): 0% | Enzyme degradation CDK2 (% remaining) @ 0.1 μM (CDK2): 10% | Enzyme degradation CDK2 (% remaining) @ 1 μM (CDK2): 0% | Enzyme degradation CDK2 (% remaining) @ 10 μM (CDK2): 0%
